The record followed here is patent publication US20240384268A1, “Oligonucleotides” (Hudson Institute of Medical Research, priority 2021, published 2024).

The series concerns the target T1, TLR8 (Homo sapiens, UniProt Q9NR97).
T1 sequence (Q9NR97 27-1041): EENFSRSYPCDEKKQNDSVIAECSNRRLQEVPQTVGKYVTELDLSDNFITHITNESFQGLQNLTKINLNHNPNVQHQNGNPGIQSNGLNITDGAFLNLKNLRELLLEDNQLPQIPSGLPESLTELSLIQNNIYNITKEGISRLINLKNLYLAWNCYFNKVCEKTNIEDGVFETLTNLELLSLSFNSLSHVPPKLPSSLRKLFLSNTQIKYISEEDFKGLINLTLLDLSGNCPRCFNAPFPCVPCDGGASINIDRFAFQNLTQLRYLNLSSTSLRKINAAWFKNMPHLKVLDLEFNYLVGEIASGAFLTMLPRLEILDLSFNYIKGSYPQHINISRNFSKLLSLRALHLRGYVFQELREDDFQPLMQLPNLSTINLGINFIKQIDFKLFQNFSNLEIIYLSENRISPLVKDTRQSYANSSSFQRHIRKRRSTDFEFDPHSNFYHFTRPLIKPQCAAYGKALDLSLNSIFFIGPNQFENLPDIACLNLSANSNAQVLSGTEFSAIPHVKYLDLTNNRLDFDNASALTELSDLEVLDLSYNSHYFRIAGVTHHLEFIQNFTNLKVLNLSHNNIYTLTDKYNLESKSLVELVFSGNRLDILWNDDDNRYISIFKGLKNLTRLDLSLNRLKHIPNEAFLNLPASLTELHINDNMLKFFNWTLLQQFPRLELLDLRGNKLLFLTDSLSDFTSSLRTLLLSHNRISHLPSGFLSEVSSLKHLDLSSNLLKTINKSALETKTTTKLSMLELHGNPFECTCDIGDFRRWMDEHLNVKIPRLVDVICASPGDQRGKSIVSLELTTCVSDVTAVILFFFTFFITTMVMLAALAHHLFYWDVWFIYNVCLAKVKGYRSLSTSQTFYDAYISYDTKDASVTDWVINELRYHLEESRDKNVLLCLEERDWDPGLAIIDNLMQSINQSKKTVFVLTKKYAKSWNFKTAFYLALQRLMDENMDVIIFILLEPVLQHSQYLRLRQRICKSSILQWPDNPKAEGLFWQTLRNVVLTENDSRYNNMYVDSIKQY
As to the kind of experiment: HEK-TLR8 NF-κB-luciferase reporter, R848 or Motolimod stimulation (potentiation or inhibition). The class given is cell-based. The following applies: for TLR8 100 nM (averaged NF-κB-Luciferase level relative to R848 condition, fold increase): ASO 100 nM; for TLR8 100 nM (averaged NF-κB-Luciferase level relative to R848 condition, fold increase) / TLR8 500 nM (averaged NF-κB-Luciferase level relative to R848 condition, fold increase): relative to R848 only; for TLR8 500 nM (averaged NF-κB-Luciferase level relative to R848 condition, fold increase): ASO 500 nM; for TLR8-500 nM: averaged NF-κB-Luciferase relative to R848: HEK-TLR8, 500 nM ASO, fold increase relative to R848 without ASO (Alharbi et al., 2020). More on the design: expressed in transfected cells; host or cells: 293XLhTLR8 (HEK293). In general terms: In a reporter assay the amount or activity of a reporter protein is the signal.

In the oligonucleotide strings, read from the 5' end, every base follows the letter of its sugar. An asterisk marks phosphorothioate; unmarked linkages are phosphodiester. Other units and linkages are bracketed, terminal groups are in braces. A string of capitals states the bases alone. d = 2'-deoxy (DNA); m = 2'-O-methyl

With “CTTGAAGCATCGTATC (antisense; LNA-modified, pattern not given here) [CTNN2B-3648 LNA KL]”, the “TLR8 100 nM (averaged NF-κB-Luciferase level relative to R848 condition, fold increase)” value is on record as 0.960 and the “TLR8 500 nM (averaged NF-κB-Luciferase level relative to R848 condition, fold increase)” value is listed as 3.889. For the substance “GAGGTCTTGGCTTCGT (antisense; LNA-modified, pattern not given here) [MB21D1-525 LNA V1]”, the “TLR8 100 nM (averaged NF-κB-Luciferase level relative to R848 condition, fold increase)” value was determined as 0.574 and the “TLR8 500 nM (averaged NF-κB-Luciferase level relative to R848 condition, fold increase)” value is recorded as 0.642. The like results for “CCTCCCATCTCCTTCA (antisense; LNA-modified, pattern not given here) [HPRT LNA-326 V1]” were, in that order, 1.469 and 6.759. In the case of “mA*mG*mU*mC*mU*C*C*A*T*G*T*C*C*C*A*mG*mG*mC*mC*mU (mA*mG*mU*mC*mU*dC*dC*dA*dT*dG*dT*dC*dC*dC*dA*mG*mG*mC*mC*mU; antisense) [[CDKN2B-AS1]2232]”, the “TLR8-500 nM: averaged NF-κB-Luciferase relative to R848” value is recorded as 2.28 fold. For “TGCTCCTCGGTCTCCC (antisense; LNA-modified, pattern not given here) [CAMSAP1-1850 LNA V1]”, the “TLR8 100 nM (averaged NF-κB-Luciferase level relative to R848 condition, fold increase)” value is reported as 1.097 and the “TLR8 500 nM (averaged NF-κB-Luciferase level relative to R848 condition, fold increase)” value was 4.771. The matching figures for “TCTTGGCTTCGTGGAG (antisense; LNA-modified, pattern not given here) [MB21D1-521 LNA V1]”: 0.541 and 0.197. The like results for “CTGCAGCTTCCTTGTC (antisense; LNA-modified, pattern not given here) [CTNN2B-2136 LNA V1]” were, in that order, 0.478 and 0.936. The like results for “AGCTTCGAGGCCCCAG (antisense; LNA-modified, pattern not given here) [MB21D1-616 LNA V1]” were, in that order, 0.331 and 0.865. As for “GTCTCTGGAGCTTCCT (antisense; LNA-modified, pattern not given here) [CAMSAP1-2456 LNA V1]”, the “TLR8 100 nM (averaged NF-κB-Luciferase level relative to R848 condition, fold increase)” value turned out to be 0.764 and the “TLR8 500 nM (averaged NF-κB-Luciferase level relative to R848 condition, fold increase)” value was 2.402. On to “AAAGGACTGAGGAAAG (antisense; LNA-modified, pattern not given here) [CAMSAP1-6273 LNA KL]”, for which the “TLR8 100 nM (averaged NF-κB-Luciferase level relative to R848 condition, fold increase)” value was determined as 0.882 and the “TLR8 500 nM (averaged NF-κB-Luciferase level relative to R848 condition, fold increase)” value turned out to be 2.663. The matching figures for “TCCACAATCAAGACAT (antisense; LNA-modified, pattern not given here) [HPRT LNA-551 KL]”: 0.474 and 0.893. For the substance “GCACACTTCGTACCCA (antisense; LNA-modified, pattern not given here) [CAMSAP1-4915 LNA V1]”, the “TLR8 100 nM (averaged NF-κB-Luciferase level relative to R848 condition, fold increase)” value turned out to be 0.319 and the “TLR8 500 nM (averaged NF-κB-Luciferase level relative to R848 condition, fold increase)” value is reported as 1.091. “mC*mA*mG*mU*mC*T*C*C*A*T*G*T*C*C*C*mA*mG*mG*mC*mC (mC*mA*mG*mU*mC*dT*dC*dC*dA*dT*dG*dT*dC*dC*dC*mA*mG*mG*mC*mC; antisense) [[CDKN2B-AS1]2233]”: the “TLR8-500 nM: averaged NF-κB-Luciferase relative to R848” value was found to be 3.81 fold. With “GTCCTTGCACGTGGCT (antisense; LNA-modified, pattern not given here) [EGFR-1015 LNA V1]”, the “TLR8 100 nM (averaged NF-κB-Luciferase level relative to R848 condition, fold increase)” value is 0.570 and the “TLR8 500 nM (averaged NF-κB-Luciferase level relative to R848 condition, fold increase)” value was found to be 0.936. With “TCCGCCCAAAGGGAAC (antisense; LNA-modified, pattern not given here) [HPRT LNA-1027 KL]”, the “TLR8 100 nM (averaged NF-κB-Luciferase level relative to R848 condition, fold increase)” value worked out at 0.541 and the “TLR8 500 nM (averaged NF-κB-Luciferase level relative to R848 condition, fold increase)” value is recorded as 0.725. “mG*mU*mG*mU*mU*T*T*T*A*A*T*T*T*T*G*mU*mA*mG*mA*mG (mG*mU*mG*mU*mU*dT*dT*dT*dA*dA*dT*dT*dT*dT*dG*mU*mA*mG*mA*mG) [[CDKN2B-AS1]611]”: the “TLR8-500 nM: averaged NF-κB-Luciferase relative to R848” value is 1.88 fold. Take “mA*mU*mU*mU*mC*C*A*C*A*T*G*C*C*C*A*mG*mU*mG*mU*mU (AUUUCCACATGCCCAGUGUU; antisense; sugars from the 5' end m5 d10 m5, all phosphorothioate, methylation of C not given here) [[CDKN2B-AS1]626]”: the “TLR8-500 nM: averaged NF-κB-Luciferase relative to R848” value turned out to be 4.09 fold. The same measure, in the same setting: with “mC*mU*mU*mG*mU*G*A*A*A*A*G*A*T*T*A*mU*mC*mU*mU*mC (mC*mU*mU*mG*mU*dG*dA*dA*dA*dA*dG*dA*dT*dT*dA*mU*mC*mU*mU*mC) [[CDKN2B-AS1]2139]” the figure was 6.02 fold. Turning to “CCTTGCACGTGGCTTC (antisense; LNA-modified, pattern not given here) [EGFR-1013 LNA V1]”, the “TLR8 100 nM (averaged NF-κB-Luciferase level relative to R848 condition, fold increase)” value is recorded as 1.315 and the “TLR8 500 nM (averaged NF-κB-Luciferase level relative to R848 condition, fold increase)” value was 2.414.

On to “CACTTCGTGGGGTCCT (antisense; LNA-modified, pattern not given here) [HPRT LNA-664 V1]”, for which the “TLR8 100 nM (averaged NF-κB-Luciferase level relative to R848 condition, fold increase)” value was 0.425 and the “TLR8 500 nM (averaged NF-κB-Luciferase level relative to R848 condition, fold increase)” value came out at 1.446. Consider “mA*mA*mA*mG*mC*A*G*T*C*T*C*C*A*T*G*mU*mC*mC*mC*mA (mA*mA*mA*mG*mC*dA*dG*dT*dC*dT*dC*dC*dA*dT*dG*mU*mC*mC*mC*mA; antisense) [[CDKN2B-AS1]2237]”, for which the “TLR8-500 nM: averaged NF-κB-Luciferase relative to R848” value is recorded as 3.38 fold.

Take “mA*mG*mC*mA*mG*T*C*T*C*C*A*T*G*T*C*mC*mC*mA*mG*mG (AGCAGTCTCCATGTCCCAGG; antisense; sugars from the 5' end m5 d10 m5, all phosphorothioate, methylation of C not given here) [[CDKN2B-AS1]2235]”: the “TLR8-500 nM: averaged NF-κB-Luciferase relative to R848” value was 4.93 fold. With “ATCTGGCAGCCCATCA (antisense; LNA-modified, pattern not given here) [CTNN2B-2516 LNA V1]”, the “TLR8 100 nM (averaged NF-κB-Luciferase level relative to R848 condition, fold increase)” value is 0.808 and the “TLR8 500 nM (averaged NF-κB-Luciferase level relative to R848 condition, fold increase)” value is listed as 2.628. On to “CCAACACTTCGTGGGG (antisense; LNA-modified, pattern not given here) [HPRT LNA-668 V1]”, for which the “TLR8 100 nM (averaged NF-κB-Luciferase level relative to R848 condition, fold increase)” value is 0.535 and the “TLR8 500 nM (averaged NF-κB-Luciferase level relative to R848 condition, fold increase)” value was found to be 0.835. The matching figures for “AACACTTCGTGGGGTC (antisense; LNA-modified, pattern not given here) [HPRT LNA-666 V1]”: 0.496 and 0.882. “CTTCGTGGGGTCCTTT (antisense; LNA-modified, pattern not given here) [HPRT LNA-662 V1]”: the “TLR8 100 nM (averaged NF-κB-Luciferase level relative to R848 condition, fold increase)” value is on record as 1.097 and the “TLR8 500 nM (averaged NF-κB-Luciferase level relative to R848 condition, fold increase)” value was found to be 4.366. The matching figures for “AACCCCTTTCACCATC (antisense; LNA-modified, pattern not given here) [MB21D1-689 LNA KL]”: 1.871 and 8.654. The matching figures for “CGTATTATAGCCGATT (antisense; LNA-modified, pattern not given here) [NC1 LNA PS 3-10-3]”: 0.396 and 0.716. The matching figures for “GGAGGTCTTGGCTTCG (antisense; LNA-modified, pattern not given here) [MB21D1-526 LNA V1]”: 0.575 and 0.882.
